The target of experiment [1] is T1, human 5-HT2AR (Homo sapiens, UniProt P28223).
T1 construct: expressed in transfected cells; host or cells: HEK293
The experiment in a line: HTRF-based IP1 accumulation assay (5-HT2AR antagonistic effect). The class given is cell-based. The note with it: HEK293 cells overexpressing human 5-HT2AR; serotonin at EC80. The protocol:
The 5-HT2AR antagonistic effect of the test compounds was confirmed by measuring the production amount of IP1 using the HEK293 cell line permanently overexpressing the human 5-HT2AR. The test compounds were dissolved in 100% DMSO to a final concentration of 10 mM. The starting concentration of 10 μM was prepared from the stock solution, followed by serial dilutions to prepare working solutions in a buffer containing lithium chloride (LiCl). The cells and compounds prepared in the test buffer were placed in a 96-well plate and incubated at room temperature for 10 minutes. Serotonin of EC80 concentration was added, followed by incubation at 37° C. for 30 minutes in a light-shielding state. To measure IP1 accumulation in cells, JP1-d2 acceptor and IP1-Cryptate donor-which are HTRF-based substances for fluorescence signals-were added and incubated for 1 hour at room temperature in a light-shielded state. The fluorescent emission signals of acceptor and donor were detected, and HTRF ratio values were substracted by mean value of serotonin control. The percentage of activation was calculated by normalization of the serotonin control (0%) and IP1 control (100%). The IC50 values of the test compounds are represented in Table 1. (+: 1,000-2,000 nM, ++: 500-1,000 nM, +++: 100-500 nM, ++++: less than 100 nM).
In general terms: Time-resolved FRET reads energy transfer from a long-lived donor to a nearby acceptor.

Experiment [2] concerns the target T2, mGluR5 (Homo sapiens, UniProt P41594).
T2 construct: expressed in transfected cells; host or cells: HEK293
The experiment in a line: Fluorescence-based Ca2+ mobilization assay. It counts as cell-based. The note with it: HEK293 cells overexpressing mGluR5; L-glutamate at EC80. The protocol: In order to measure the activity on the mGluR5, an experiment was carried out to check the change in the intracellular Ca^2+ level using the HEK293 cell line permanently overexpressing the mGluR5. The cells in the cell culture medium were aliquoted into a 384-well plate coated with poly-D-lysine and cultured in a 37° C. incubator supplied with 5% CO2. The next day, the medium was removed and a dye loading buffer—in which a reagent capable of measuring Ca^2+ was dissolved—was added, and then incubated at 37° C. for 60 minutes. The test compounds were dissolved in 100% DMSO at a final concentration of 10 mM to make a stock solution. The starting concentration of […] was prepared from the stock solution, followed by serial dilutions to prepare working solutions (test compound working solutions). The test compound working solutions were added to the cells that were incubated in the dye loading buffer, which were maintained for 30 minutes at room temperature in a light-shielding state before measurement. The Ca^2+ level change induced by L-glutamate at EC80 concentration was measured for 2 minutes using FLIPR Tetra (MDS Analytical Technologies). The fluorescent Ca^2+ signal values in the presence of the test compounds were normalized to the fluorescent signal elicited by […] concentration of L-glutamate as 100% and that elicited by vehicle as 0% to estimate % inhibition of the test compounds. The efficacy of the test compounds was calculated as IC50 values and represented in Table 1. (+: 1,000-2,000 nM, ++: 500-1,000 nM, +++: 100-500 nM, ++++: less than 100 nM).
In general terms: Calcium assays in cells follow changes in intracellular calcium, usually with a dye or a luminescent sensor.

The structures appear in SMILES notation. pIC50: −log10 of the molar value.

The term pIC50 denotes the IC50 on a negative log10 scale, so that one unit is a factor of ten. Read a high pIC50 as a low IC50.

T1 sequence (P28223 whole entry): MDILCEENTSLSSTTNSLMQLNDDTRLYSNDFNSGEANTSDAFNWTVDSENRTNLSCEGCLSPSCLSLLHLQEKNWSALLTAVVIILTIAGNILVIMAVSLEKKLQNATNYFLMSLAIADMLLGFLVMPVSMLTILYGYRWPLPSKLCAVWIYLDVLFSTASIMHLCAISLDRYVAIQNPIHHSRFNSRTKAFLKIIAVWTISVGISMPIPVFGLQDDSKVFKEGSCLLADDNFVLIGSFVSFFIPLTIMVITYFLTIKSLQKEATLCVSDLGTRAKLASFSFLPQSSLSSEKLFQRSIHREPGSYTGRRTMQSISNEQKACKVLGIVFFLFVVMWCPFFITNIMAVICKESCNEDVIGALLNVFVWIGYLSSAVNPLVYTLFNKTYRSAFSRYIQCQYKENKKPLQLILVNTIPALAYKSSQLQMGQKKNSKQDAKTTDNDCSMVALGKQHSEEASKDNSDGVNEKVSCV
T2 sequence (P41594 21-1212): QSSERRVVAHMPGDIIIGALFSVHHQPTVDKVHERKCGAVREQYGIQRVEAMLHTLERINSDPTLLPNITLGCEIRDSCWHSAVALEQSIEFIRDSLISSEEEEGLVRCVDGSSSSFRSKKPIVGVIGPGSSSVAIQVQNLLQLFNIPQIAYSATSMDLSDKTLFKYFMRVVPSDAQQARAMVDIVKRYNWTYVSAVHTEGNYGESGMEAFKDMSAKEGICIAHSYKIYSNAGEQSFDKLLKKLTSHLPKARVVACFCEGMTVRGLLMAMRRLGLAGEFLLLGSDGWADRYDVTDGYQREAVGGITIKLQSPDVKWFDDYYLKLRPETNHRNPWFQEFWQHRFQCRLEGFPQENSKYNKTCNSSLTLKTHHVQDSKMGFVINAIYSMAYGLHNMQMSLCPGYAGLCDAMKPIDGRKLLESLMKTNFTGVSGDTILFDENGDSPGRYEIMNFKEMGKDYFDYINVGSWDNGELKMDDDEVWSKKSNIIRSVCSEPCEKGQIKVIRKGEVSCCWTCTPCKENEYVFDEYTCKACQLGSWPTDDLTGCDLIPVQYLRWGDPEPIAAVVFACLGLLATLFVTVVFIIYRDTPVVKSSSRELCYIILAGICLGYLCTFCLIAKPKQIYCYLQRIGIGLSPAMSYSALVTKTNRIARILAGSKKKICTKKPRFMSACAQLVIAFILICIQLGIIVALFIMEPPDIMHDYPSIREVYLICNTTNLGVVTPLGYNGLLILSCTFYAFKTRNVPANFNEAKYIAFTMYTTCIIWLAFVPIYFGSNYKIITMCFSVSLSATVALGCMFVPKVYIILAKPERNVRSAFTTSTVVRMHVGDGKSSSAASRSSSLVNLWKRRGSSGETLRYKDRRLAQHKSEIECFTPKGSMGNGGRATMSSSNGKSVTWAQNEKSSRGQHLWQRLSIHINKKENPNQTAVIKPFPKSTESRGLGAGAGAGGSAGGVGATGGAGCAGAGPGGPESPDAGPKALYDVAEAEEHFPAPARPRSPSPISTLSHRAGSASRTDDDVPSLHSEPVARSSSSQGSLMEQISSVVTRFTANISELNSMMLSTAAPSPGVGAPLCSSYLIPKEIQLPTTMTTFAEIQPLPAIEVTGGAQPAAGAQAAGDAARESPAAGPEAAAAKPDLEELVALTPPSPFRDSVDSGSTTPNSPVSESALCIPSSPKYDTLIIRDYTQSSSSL

Take `O=C(NCC1(NC2CC2)CCC1)c1ccc(C#Cc2ccc(F)cn2)cc1` [Example 4, N-((1-(cyclopropylamino)cyclobutyl)methyl)-4-((5-fluoropyridin-2-yl)ethynyl)benzamide]: the negative logarithm of the IC50 (pIC50) in experiment [1] was 6.30 to 7.00; in experiment [2] it was 5.70 to 6.00.
Consider `O=C(NCC1(NC2CC2)CCC1)c1ccc(C#Cc2ccc(F)cc2)cc1` [Example 6, N-((1-(cyclopropylamino)cyclobutyl)methyl)-4-((4-fluorophenyl)ethynyl)benzamide], for which the figures for the negative-log IC50 (pIC50) in experiment [1] and in experiment [2] were greater than 7.00 and 6.00 to 6.30, respectively.
For the compound `O=C(NCC1(NC2CC2)CCC1)c1ccc(C#Cc2ccncc2)c(F)c1` [Example 7, N-((1-(cyclopropylamino)cyclobutyl)methyl)-3-fluoro-4-(pyridin-4-ylethynyl)benzamide], the pIC50 was 6.30 to 7.00 in experiment [1] and 5.70 to 6.00 in experiment [2].
For `O=C(NCC1(NC2CC2)CCC1)c1ccc(C#Cc2ccccn2)cc1` [Example 8, N-((1-(cyclopropylamino)cyclobutyl)methyl)-4-(pyridin-2-ylethynyl)benzamide] the same measures were 5.70 to 6.00 and 6.00 to 6.30.
As for `O=C(NCC1(NC2CC2)CCCC1)c1ccc(C#Cc2ccc(F)cc2)cc1` [Example 13, N-((1-(cyclopropylamino)cyclopentyl)methyl)-4-((4-fluorophenyl)ethynyl)benzamide], the pIC50 in experiment [1] was greater than 7.00; in experiment [2] it was 6.00 to 6.30.
As for `O=C(NCC1(NC2CC2)CCCCCC1)c1ccc(C#Cc2ccc(F)cc2)cc1` [Example 14, N-((1-(cyclopropylamino)cycloheptyl)methyl)-4-((4-fluorophenyl)ethynyl)benzamide], the results for the pIC50 in experiment [1] and in experiment [2] were greater than 7.00 and 6.30 to 7.00, respectively.
With `O=C(NCC1(NC2CC2)CCCCCC1)c1ccc(C#Cc2ccc(F)cn2)cc1` [Example 15, N-((1-(cyclopropylamino)cycloheptyl)methyl)-4-((5-fluoropyridin-2-yl)ethynyl)benzamide], the negative-log IC50 (pIC50) was 6.30 to 7.00 in experiment [1] and 6.00 to 6.30 in experiment [2].
The matching figures for `O=C(NCC1(NC2CC2)CCCC1)c1ccc(C#Cc2ccc(F)c(F)c2)cc1` [Example 17, N-((1-(cyclopropylamino)cyclopentyl)methyl)-4-((3,4-difluorophenyl)ethynyl)benzamide]: 6.30 to 7.00 and 5.70 to 6.00.
For the compound `O=C(NCC1(NC2CC2)CCCCCC1)c1ccc(C#Cc2ccc(F)c(F)c2)cc1` [Example 18, N-((1-(cyclopropylamino)cycloheptyl)methyl)-4-((3,4-difluorophenyl)ethynyl)benzamide], the negative logarithm of the IC50 (pIC50) is 6.00 to 6.30 in experiment [1] and 5.70 to 6.00 in experiment [2].
In the case of `O=C(NCC1(NC2CC2)CCCCC1)c1ccc(C#Cc2ccc(F)cc2)cc1` [Example 19, N-((1-(cyclopropylamino)cyclohexyl)methyl)-4-((4-fluorophenyl)ethynyl)benzamide], the pIC50 in experiment [1] is greater than 7.00; in experiment [2] it was 5.70 to 6.00.
On to `Cc1cc(C#Cc2ccc(C(=O)NCC3(NC4CC4)CCCC3)cc2)ccn1` [Example 21, N-((1-(cyclopropylamino)cyclopentyl)methyl)-4-((2-methylpyridin-4-yl)ethynyl)benzamide], for which the figures for the pIC50 in experiment [1] and in experiment [2] were 6.00 to 6.30 and 5.70 to 6.00, respectively.
For `O=C(NCC1(N2CCOCC2)CCCC1)c1ccc(C#Cc2ccccc2F)cc1` [Example 23, 4-((2-fluorophenyl)ethynyl)-N-((1-morpholinocyclopentyl)methyl)benzamide] the same measures were 6.30 to 7.00 and 6.00 to 6.30.
Turning to `CC(C)NC1(CNC(=O)c2ccc(C#Cc3ccccc3F)cc2)CCOCC1` [Example 24, 4-((2-fluorophenyl)ethynyl)-N-((4-(isopropylamino)tetrahydro-2H-pyran-4-yl)methyl)benzamide], the pIC50 in experiment [1] and in experiment [2] was 6.30 to 7.00 throughout.
Take `CC1CCC(CNC(=O)c2ccc(C#Cc3ccccc3F)cc2)(NC2CC2)CC1` (centres unmarked) [Example 26, N-((1-(cyclopropylamino)-4-methylcyclohexyl)methyl)-4-((2-fluorophenyl)ethynyl)benzamide]: the figures for the negative logarithm of the IC50 (pIC50) in experiment [1] and in experiment [2] were greater than 7.00 and 5.70 to 6.00, respectively.
Regarding `CC(C)(C)CNC1(CNC(=O)c2ccc(C#Cc3ccccc3F)cc2)CCCCC1` [Example 28, 4-((2-fluorophenyl)ethynyl)-N-((1-(neopentylamino)cyclohexyl)methyl)benzamide], the negative-log IC50 (pIC50) in experiment [1] is 6.30 to 7.00; in experiment [2], 5.70 to 6.00.
For `O=C(NCC1(CC2CC2)CCOCC1)c1ccc(C#Cc2ccccc2F)cc1` [Example 29, N-((4-(cyclopropylmethyl)tetrahydro-2H-pyran-4-yl)methyl)-4-((2-fluorophenyl)ethynyl)benzamide], the negative-log IC50 (pIC50) in experiment [1] and in experiment [2] was 6.30 to 7.00 in each case.
With `CC(C)NC1(CNC(=O)c2ccc(C#Cc3ccccc3F)cc2)CCCC1` [Example 30, 4-((2-fluorophenyl)ethynyl)-N-((1-(isopropylamino)cyclopentyl)methyl)benzamide], the pIC50 in experiment [1] was greater than 7.00; in experiment [2], 6.00 to 6.30.
Regarding `O=C(NCC1(NCC(F)(F)F)CCCCC1)c1ccc(C#Cc2ccncc2)cc1` [Example 31, 4-(pyridin-4-ylethynyl)-N-((1-((2,2,2-trifluoroethyl)amino)cyclohexyl)methyl)benzamide], the pIC50 in experiment [1] and in experiment [2] was 5.70 to 6.00 in each case.
As to `O=C(NCC1(O)CCCCC1)c1ccc(C#Cc2ccccc2F)cc1` [Example 32, 4-((2-fluorophenyl)ethynyl)-N-((1-hydroxycyclohexyl)methyl)benzamide], the negative logarithm of the IC50 (pIC50) is 6.00 to 6.30 in experiment [1] and greater than 7.00 in experiment [2].
On to `O=C(NCC1CCOCC1)c1ccc(C#Cc2ccc(F)cc2)cc1` [Example 33, 4-((4-fluorophenyl)ethynyl)-N-((tetrahydro-2H-pyran-4-yl)methyl)benzamide], for which the pIC50 in experiment [1] is 5.70 to 6.00; in experiment [2] it was 6.30 to 7.00.
For `O=C(NCC1(c2cccnc2)CCCC1)c1ccc(C#Cc2ccccc2F)cc1` [Example 34, 4-((2-fluorophenyl)ethynyl)-N-((1-(pyridin-3-yl)cyclopentyl)methyl)benzamide] the same measures were 5.70 to 6.00 and 6.00 to 6.30.
Regarding `O=C(NCC1CCOCC1)c1ccc(C#Cc2ccccc2F)cc1F` [Example 35, 2-fluoro-4-((2-fluorophenyl)ethynyl)-N-((tetrahydro-2H-pyran-4-yl)methyl)benzamide], the negative logarithm of the IC50 (pIC50) is 5.70 to 6.00 in experiment [1] and greater than 7.00 in experiment [2].
For `CC1(CNC(=O)c2ccc(C#Cc3ccccc3F)cc2)CCOCC1` [Example 36, 4-((2-fluorophenyl)ethynyl)-N-((4-methyltetrahydro-2H-pyran-4-yl)methyl)benzamide] the same measures were 6.00 to 6.30 and greater than 7.00.
Consider `O=C(NCC1(CO)CCOCC1)c1ccc(C#Cc2ccccc2F)cc1` [Example 38, 4-((2-fluorophenyl)ethynyl)-N-((4-(hydroxymethyl)tetrahydro-2H-pyran-4-yl)methyl)benzamide], for which the values for the negative logarithm of the IC50 (pIC50) in experiment [1] and in experiment [2] were 6.00 to 6.30 and 6.30 to 7.00, respectively.
With `C[C@@H](NC(=O)c1ccc(C#Cc2ccccc2F)cc1)C1CCOCC1` [Example 47, (R)-4-((2-fluorophenyl)ethynyl)-N-(1-(tetrahydro-2H-pyran-4-yl)ethyl)benzamide], the values for the pIC50 in experiment [1] and in experiment [2] were 6.30 to 7.00 and greater than 7.00, respectively.
As for `O=C(NCC1(F)CCOCC1)c1ccc(C#Cc2ccccc2F)cc1` [Example 48, 4-((2-fluorophenyl)ethynyl)-N-((4-fluorotetrahydro-2H-pyran-4-yl)methyl)benzamide], the pIC50 is 6.00 to 6.30 in experiment [1] and greater than 7.00 in experiment [2].
Turning to `O=C(NCC1(CF)CCOCC1)c1ccc(C#Cc2ccccc2F)cc1` [Example 50, N-((4-(fluoromethyl)tetrahydro-2H-pyran-4-yl)methyl)-4-((2-fluorophenyl)ethynyl)benzamide], the pIC50 is 6.00 to 6.30 in experiment [1] and greater than 7.00 in experiment [2].
For `CNC(=O)C1(CNC(=O)c2ccc(C#Cc3ccccc3F)cc2)CCOCC1` [Example 53, 4-((4-((2-fluorophenyl)ethynyl)benzamido)methyl)-N-methyltetrahydro-2H-pyran-4-carboxamide], the negative logarithm of the IC50 (pIC50) in experiment [1] is 5.70 to 6.00; in experiment [2] it was 6.00 to 6.30.

The values are drawn from patent US12435051B2, “Dual modulator of mGluR5 and 5-HT2A receptor, and use thereof” (Vivozon Inc., priority 2020, dated 2025).
